Test results taken from patent US20100048480A1, “PRODUCTION OF ANTI-MICROBIAL PEPTIDES” (priority 2006, published 2010).

Test system: Citrobacter rodentium
Experiment: Functionality assay (antimicrobial activity, killing of bacteria)
Assay type: cell-based
Description: One skilled in the art will appreciate that similar methods can be used to confirm the functionality of any AMP of interest, such as a defensin. The OD600 of a Citrobacter rodentium overnight culture was measured and a dilution series was performed. 100 μl of a 7.1×10^2 bacteria/ml dilution was used in the functionality assay. […] For LL37, the positive control had 20 μM pure synthetic LL37 (Microchem Facility, Emory) added, and LL37 peptide obtained in Example 2 was added at 8.5 μg (250 μl) or 17 μg (500 μl) (FIG. 3). 20 μM concentration of the synthetic peptides equals 8.8 μg added.

[1] = CRAMP peptide of Example 2 at 30 μM or 53 μM, positive control 50 μM CRAMP (Sigma Genosys), FIG. 2

CRAMP-FLAG-tag: CRAMP with C-terminal FLAG tag, released by sumoase from His tag-SUMO-CRAMP-FLAG-tag (HMGLLRKGGEKIGEKLKKIGQKIKNFFQKLVPQPEQDYKDDDDKG; C-terminal FLAG tag; Resulting peptide when SEQ ID NO 45 treated with sumoase)
efficiency in killing Citrobacter rodentium compared with commercially available peptide [1]: decrease in efficacy

CRAMP: mouse cathelicidin-related antimicrobial peptide, active last 34 aa, released by sumoase from recombinant His tag-SUMO-CRAMP (HMGLLRKGGEKIGEKLKKIGQKIKNFFQKLVPQPEQ; resulting protein when SEQ ID NO 47 treated with sumoase)
efficiency in killing Citrobacter rodentium compared with commercially available peptide [1]: almost as efficient in killing Citrobacter rodentium as the commercially available peptide

LL37: human cathelicidin LL37 plus N-terminal His and Met, released by sumoase from His tag-SUMO-LL37 (HMLLGDFFRKSKEKIGKEFKRIVQRIKDFLRNLVPRTES; resulting peptide when SEQ ID NO 40 treated with sumoase.)
efficiency in killing Citrobacter rodentium compared with commercially available peptide (LL37 peptide of Example 2 at 8.5 μg (250 μl) or 17 μg (500 μl), positive control 20 μM synthetic LL37, FIG. 3): almost as efficient in killing Citrobacter rodentium as the commercially available peptide
